Experimental data reported in PMC10974275, “Pharmacokinetic Interaction of Kratom and Cannabidiol in Male Rats” (Pharmaceutics, 2024).
Read-outs that look alike come from different tables or passages of the source.

Legend:
[1] = Single-dose pharmacokinetics of concomitant cannabidiol product and kratom product; type: in vivo, male Sprague-Dawley rats; details: for AUC0–∞/dose / CL/F / Vd/F: Single-Dose; for AUC0–∞/dose: dose-normalized; for CL/F / Vd/F: plasma; for CL/F: read-out: CL/F (apparent oral clearance) (converted); for Vd/F: read-out: V/F (apparent volume of distribution); for AUC(0-t): read-out: AUC0–24
Procedure: (§1) Male Sprague-Dawley rats (weight 250 ± 25 g) were obtained from Envigo (Indianapolis, IN, USA) with indwelling jugular vein catheters. Animals were acclimated for ≥72 h in a temperature- and humidity-controlled vivarium on a 12 h light/dark cycle. All studies were approved by the University of Florida’s Institutional Animal Care and Use Committee (IACUC) and carried out in accordance with Association for Assessment and Accreditation of Laboratory Animal Care International (AAALAC) and National Institute of Health (NIH) guidelines. In the single-dose studies, rats were fasted for 10 h prior to dosing and an additional 2 h post-dose.
(§2) For the single-dose study, rats were pretreated with 50 mg/kg cannabidiol by oral gavage and, after 30 min, were dosed with 0.8 mL/kg OPMS Gold solution. A period of 30 min was observed between doses to reduce the likelihood of interactions between the formulations in the stomach. Rats were connected to an automatic blood collection system (BASi, West Lafayette, IN, USA), and blood samples were taken pre-kratom product dose and 0.08, 0.17, 0.25, 0.5, 1, 2, 3, 4, 6, 8, 12, 18, 24, 30, 36, 42, and 48 h after kratom product dose administration. For the multiple-dose study, rats were pretreated with 25 mg/kg cannabidiol and, after 30 min, were dosed with 0.4 mL/kg OPMS Gold solution every 12 h (0900 and 2100) for a period of 4 days. Blood samples were taken prior to the 0900 dose (24, 48, 72, 96 h). […] Plasma was separated from blood by centrifugation at 850× g for 10 min at 4 °C. Samples were stored at −20 °C until analysis.
(§3) Standards were prepared by adding 2.0 μL of CS or QC stock to 18 μL of blank rat plasma. This generated eight calibration standards (5–500 ng/mL) and four QC standards (5, 8, 200, and 400 ng/mL). After spiking, the standards were vortex-mixed for 5 min at 650 rpm. Analytes were precipitated with 80 μL methanol acidified with 0.05% formic acid containing 25 ng/mL IS-1 and IS-2 (Quenching Solution; QS). Samples were transferred to a 96-well filter plate and centrifuged at 850× g for 2 min at 4 °C. Study samples were prepared in the same manner by aliquoting 20 μL and adding 80 μL QS prior to vortex mixing and filtration.
(§4) Samples were analyzed using previously validated ultraperformance liquid chromatography-tandem mass spectrometry (UPLC-MS/MS) methods for the quantification of cannabinoids and alkaloids in rat plasma. Both methods used a Waters Acquity I-Class UPLC coupled to a Xevo TQ-S micro mass spectrometer (Waters, Milford, MA, USA). The source gas was nitrogen, and the collision gas was argon. The autosampler was maintained at 10 °C.
(§5) For the cannabinoid bioanalytical method, a 1.7 µm, 2.1 x 100 mm C18 BEH column was utilized with a pre-column of the same chemistry (Waters, Milford, MA, USA) held at 40 °C. […] Cannabidiol was detected in positive electrospray ionization mode using multiple reaction monitoring.
(§6) For the peak separations of kratom alkaloids required for quantification, a 1.7 µm, […] × 100 mm C18 BEH column with a pre-column of the same chemistry (Waters, Milford, MA, USA) was utilized and held at 50 °C throughout the analysis. A gradient elution was used with mobile phase of aqueous ammonium acetate buffer [2.5 mM, pH 3.5 (A)] and acetonitrile (B). The gradient was held at 90% A for 1 min and decreased to 60% by 10 min. From 10 to 10.5 min, the percent of A was decreased sharply to 30% and was then set to initial conditions from 10.5 to 11 min to re-equilibrate the column. The alkaloids were detected in positive electrospray ionization mode using multiple reaction monitoring.
The TargetLynx™ application of MassLynx™ was used for data processing and quantification of the UPLC-MS/MS data (Waters, Milford, MA, USA). Phoenix Version 6.4 (Certara, Princeton, NJ, USA) was used to perform a non-compartmental analysis of concentration–time data. GraphPad Prism Version 8 (GraphPad Software, San Diego, CA, USA) was used to generate all figures. […]

[2] = Multiple-dose (steady-state) pharmacokinetics of concomitant cannabidiol and kratom product; type: in vivo, male Sprague-Dawley rats; details: mean ± SEM; for Accumulation Index / Fluctuation / concentration at 5 days / AUC(0-inf) / AUC / Cmax at 5 days: 5-day q12 h oral 25 mg/kg cannabidiol and kratom product (Eq. 4.7 mg/kg mitragynine); for AUC0–∞/dose / CL/F at 5 days / Vd/F at 5 days: Multiple-Dose; for AUC0–∞/dose: dose-normalized; for concentration at 5 days / CL/F at 5 days / Vd/F at 5 days / AUC(0-inf) / AUC / Cmax at 5 days: male, Sprague-Dawley, rat; for concentration at 5 days / CL/F at 5 days / Vd/F at 5 days / AUC(0-inf) / AUC: plasma; for concentration at 5 days: oral; for CL/F at 5 days / Vd/F at 5 days: po; for CL/F at 5 days: read-out: CL/F (apparent oral clearance) (converted); for Vd/F at 5 days: read-out: V/F (apparent volume of distribution); for AUC(0-inf): from time 0 (96 h) extrapolated to infinity; for AUC: over the dosing interval (12 h); for Cmax at 5 days: maximum plasma concentration at steady-state
Procedure: as §1, §2, §3, §4, §5, §6
The TargetLynx™ application of MassLynx™ was used for data processing and quantification of the UPLC-MS/MS data (Waters, Milford, MA, USA). Phoenix Version 6.4 (Certara, Princeton, NJ, USA) was used to perform a non-compartmental analysis of concentration–time data. GraphPad Prism Version 8 (GraphPad Software, San Diego, CA, USA) was used to generate all figures.

[3] = parameters: method as in PMID 33620222; details: n = 4, mean ± SEM, cited from earlier work
[4] = Single oral dose pharmacokinetics of kratom product alone (control data from Kamble et al.); details: without cannabidiol
[5] = Single oral dose pharmacokinetics of cannabidiol product alone; type: in vivo, male Sprague-Dawley rats; details: male, Sprague-Dawley, rat, cannabidiol in plasma, single oral dose of cannabidiol product alone (50 mg/kg), n = 4, mean ± SEM
[6] = male, Sprague-Dawley, rat, po, mean ± SEM
[7] = male, Sprague-Dawley, rat, mitragynine in plasma, single concomitant oral dose of cannabidiol product (50 mg/kg) and kratom product (9.4 mg/kg mitragynine), n = 5, mean ± SEM
[8] = average plasma concentration at steady-state, read-out: Cavg,ss
[9] = minimum plasma concentration at steady-state, read-out: Cmin,ss
[10] = mitragynine in plasma, single oral dose of kratom product alone (9.6 mg/kg mitragynine)
[11] = male, Sprague-Dawley, rat, po, minor kratom alkaloid/metabolite in plasma, single concomitant dose of cannabidiol and kratom product, n = 5, mean ± SEM
[12] = male, Sprague-Dawley, rat, po, minor kratom alkaloid/metabolite in plasma, single concomitant dose of cannabidiol and kratom product, n = 5, mean ± SEM, read-out: Cmax
[13] = minor kratom alkaloid/metabolite in plasma, single oral dose of kratom product alone
[14] = minor kratom alkaloid/metabolite in plasma, single concomitant dose of cannabidiol and kratom product, n = 5, mean ± SEM
[15] = cannabidiol, cannabidiol plus kratom product vs cannabidiol product alone, single dose
[16] = male, Sprague-Dawley, rat, cannabidiol in plasma, single concomitant oral dose of cannabidiol product (50 mg/kg) and kratom product (9.4 mg/kg mitragynine), n = 5, mean ± SEM

SMILES | AUC0–∞/dose ([1]; mean ± SEM) [ng·h/mL/mg/kg] | CL/F [1, 6] [mL/min/kg] | Vd/F [1, 6] [L/kg] | Accumulation Index [2] | Fluctuation [2] [%] | AUC0–∞/dose [2] [ng·h/mL/mg/kg] | concentration at 5 days [2, 8] [ng/mL] | concentration at 5 days [2, 9] [ng/mL] | CL/F at 5 days [2] [mL/min/kg] | Vd/F at 5 days [2] [L/kg] | AUC(0-inf) [2] [ng·h/mL] | AUC [2] [ng·h/mL] | Cmax at 5 days [2] [ng/mL] | Tmax [1, 11] [h] | AUC(0-t) [1, 11] [ng·h/mL] | Cmax [1, 12] [ng/mL] | AUC0–24 [3, 13] [ng·h/mL] | Cmax [3, 13] [ng/mL] | Tmax [3, 13] [h] | also measured
CC[C@@H]1CN2CCc3c([nH]c4cccc(OC)c34)[C@@H]2C[C@@H]1/C(=C\OC)C(=O)OC [Mitragynine, mitragynine] | 578.6 ± 187.9 | 38.3 | 25.8 ± 7.5 | 1.4 ± 0.1 | 90.0 ± 11.3 | 605.8 ± 153.1 | 151 ± 34.7 | 91.1 ± 24.9 | 51.7 | 28.7 ± 3.7 | 2910 ± 735 | 1810 ± 417 | 218 ± 40 |  |  |  |  |  |  | Tmax [1, 7]: 17 ± 4.6 h; AUC(0-t) [1, 7]: 5350 ± 1150 ng·h/mL; Cmax ([1]; male, Sprague-Dawley, rat, mitragynine in plasma, single concomitant oral dose of cannabidiol product (50 mg/kg) and kratom product (9.4 mg/kg mitragynine), n = 5, mean ± SEM, read-out: Cmax): 253 ± 68.3 ng/mL; Fluctuation ([2]; listed as mitragynine): ~100%; AUC0–24 [3, 10]: 1306.8 ± 126.1 ng·h/mL; Cmax [3, 10]: 111.9 ± 15.6 ng/mL; Tmax [3, 10]: 3.1 ± 1.7 h
CC[C@@H]1CN2CCc3c([nH]c4cccc(OC)c34)[C@H]2C[C@@H]1/C(=C\OC)C(=O)OC [Speciociliatine, speciociliatine] |  |  |  |  |  |  |  |  |  |  |  |  |  | 17 ± 5.9 | 990 ± 93.7 | 68.1 ± 5.9 | 222.7 ± 22.2 | 23.8 ± 1.4 | 3.2 ± 1.6 | 
CC[C@@H]1CN2CC[C@@]3(O)C(=Nc4cccc(OC)c43)[C@@H]2C[C@@H]1/C(=C\OC)C(=O)OC [7-hydroxymitragynine] |  |  |  |  |  |  |  |  |  |  |  |  |  |  |  |  | 41.0 ± 7.6 | 4.0 ± 0.6 | 3.1 ± 1.7 | AUC0–24 [1, 14]: 189.2 ± 27.7 ng·h/mL; Cmax [1, 14]: 17.5 ± 2.3 ng/mL; metabolite to parent (mitragynine) exposure ratio percent ([1]; with cannabidiol, single concomitant dose of cannabidiol and kratom product): 3.5%; metabolite to parent (mitragynine) exposure ratio percent [4]: 3.1%
C=C(C)[C@@H]1CCC(C)=C[C@H]1c1c(O)cc(CCCCC)cc1O [Cannabidiol] | 97.8 ± 18.5 | 192 | 164 ± 26.3 | 1.8 ± 0.0 | 219.0 ± 42.7 | 140.8 ± 34.0 | 204 ± 51.3 | 80.9 ± 23.7 | 217 | 192 ± 42.1 | 3520 ± 851 | 2450 ± 615 | 489 ± 96.2 |  |  |  |  |  |  | Cmax [5]: 589 ± 38.3 ng/mL; Tmax [5]: 3.8 ± 1.5 h; AUC(0-t) ([5]; read-out: AUC0–24): 4400 ± 319 ng·h/mL; AUC0–24 Fold Change (90% CI Ratio) [1, 15]: 1.0 (0.8, 1.1); Cmax Fold Change (90% CI Ratio) [1, 15]: 0.8 (0.7, 0.9); range of 90% confidence interval values of AUC0–24 fold change ([1]; cannabidiol, coadministration with kratom vs cannabidiol alone, single dose): 0.8–1.1; Tmax [1, 16]: 6.3 ± 1 h; AUC(0-t) [1, 16]: 4180 ± 614 ng·h/mL; Cmax ([1]; male, Sprague-Dawley, rat, cannabidiol in plasma, single concomitant oral dose of cannabidiol product (50 mg/kg) and kratom product (9.4 mg/kg mitragynine), n = 5, mean ± SEM, read-out: Cmax): 491 ± 69.2 ng/mL
C=C[C@H]1CN2CCc3c([nH]c4cccc(OC)c34)[C@@H]2C[C@@H]1/C(=C\OC)C(=O)OC [Paynantheine, paynantheine] |  |  |  |  |  |  |  |  |  |  |  |  |  | 16.2 ± 4.9 | 290 ± 96.4 | 19.8 ± 5.8 |  | 3.0 ± 1.7 | 0.08 ± 0.0 | 
